From ChEMBL document CHEMBL3992523, “Potent Inhibition of Nitric Oxide-Releasing Bifendate Derivatives against Drug-Resistant K562/A02 Cells in Vitro and in Vivo” (J Med Chem, 2017)
Activity calls are given as the source filed them. No cut-off for these calls is given here.

Columns and labels:
[1] = Resistant factor, ratio of IC50 for P-gp overexpressing/drug resistant human K562/A02 cells to IC50 for human K562 cells; type: functional
K562/A02 [2] = assay: Anti-proliferative activity against P-gp overexpressing/drug resistant human K562/A02 cells measured after 72 hrs by MTS assay; type: functional, cell-based; settings: K562/A02, 72 h
K562 [3] = assay: Anti-proliferative activity against human K562 cells measured after 72 hrs by MTS assay; type: functional, cell-based; settings: K562, 72 h
[4] = Drug metabolism in P-gp overexpressing/drug resistant human K562/A02 cells assessed as nitric oxide production at 100 uM measured at 240 mins by Griess assay; type: ADME, cell-based; settings: k562/a02, 4 h
[5] = Permeability in human Caco2 cells assessed as concentration ratio of basolateral to apical side at 100 uM measured at 10 mins post dose by HPLC analysis; type: ADME, cell-based; settings: caco-2, 10 min
[6] = Permeability in human Caco2 cells assessed as concentration ratio of basolateral to apical side at 100 uM measured at 5 mins post dose by HPLC analysis; type: ADME, cell-based; settings: caco-2, 5 min
[7] = Toxicity in BALB/c nude mouse administered via ip for every 3 days of four injections; settings: in vivo
K562/A02 [8] = assay: Antitumor activity against P-gp overexpressing/drug resistant human K562/A02 cells xenografted in BALB/c nude mouse assessed as tumor growth inhibition at 4 mg/kg, iv administered every other day for 21 days measured post last dose relative to control; type: functional; settings: 504 h, read-out: TGI
K562/A02 [9] = assay: Antitumor activity against P-gp overexpressing/drug resistant human K562/A02 cells xenografted in BALB/c nude mouse assessed as reduction in tumor size at 4 mg/kg, iv administered every other day for 21 days measured post last dose; type: functional, organism-based
K562/A02 [10] = assay: Antitumor activity against P-gp overexpressing/drug resistant human K562/A02 cells xenografted in BALB/c nude mouse assessed as reduction in tumor weight at 4 mg/kg, iv administered every other day for 21 days measured post last dose; type: functional, organism-based
Homo sapiens [11] = species on record: Homo sapiens; assay: Effect on P-gp ATPase activity in human K562/A02 cell membranes assessed as remaining ATP level by measuring relative light units at 200 uM in presence of MgATP measured after 40 mins by luminescence based P-gp-Glo assay
Homo sapiens [12] = species on record: Homo sapiens; assay: Inhibition of P-gp in human K562/A02 cells assessed as increase in intracellular rhodamine123 accumulation at 0.33 to 10 uM measured after 1 hr by flow cytometry; type: cell-based
K562 [13] = assay: Effect on rhodamine123 accumulation in human K562 cells at 0.33 to 10 uM measured after 1 hr by flow cytometry; type: functional, cell-based
K562/A02 [14] = assay: Anti-proliferative activity against P-gp overexpressing/drug resistant human K562/A02 cells at 150 uM in presence of hemoglobin measured after 24 hrs by MTS assay; type: functional, cell-based

Row | Compound | Ratio IC50 [1] | IC50 (K562/A02 [2]) | IC50 (K562 [3]) | further results
1 | COC(=O)c1cc(OC)c2c(c1-c1c(C(=O)OC3CCN(CC(=O)OCCOCCOc4no[n+]([O-])c4S(=O)(=O)c4ccccc4)CC3)cc(OC)c3c1OCO3)OCO2 | 1.4 | 890 nM | 640 nM | Drug metabolism [4]: Metabolite_Detected
2 | COC(=O)c1cc(OC)c2c(c1-c1c(C(=O)OCCN3CCN(CC(=O)OC(C)CCOc4no[n+]([O-])c4S(=O)(=O)c4ccccc4)CC3)cc(OC)c3c1OCO3)OCO2 (stereo not drawn) | 2.1 | 810 nM | 380 nM | 
3 | O=C(CN1CCC(O)CC1)OCCCCOc1no[n+]([O-])c1S(=O)(=O)c1ccccc1 | 1.8 | 4110 nM | 2250 nM | Ratio [5]: 0.03; Ratio [6]: 0.02
4 | O=C(CN1CCC(OC(=O)c2ccccc2)CC1)OCCCCOc1nonc1S(=O)(=O)c1ccccc1 | 1.6 | 6650 nM | 4060 nM | 
5 | COC(=O)c1cc(OC)c2c(c1-c1c(C(=O)OCCN3CCN(CC(=O)OC(C)(C)CCOc4no[n+]([O-])c4S(=O)(=O)c4ccccc4)CC3)cc(OC)c3c1OCO3)OCO2 | 1.8 | 1510 nM | 860 nM | Drug metabolism [4]: Metabolite_Detected
6 | COC(=O)c1cc(OC)c2c(c1-c1c(C(=O)OC)cc(OC)c3c1OCO3)OCO2 [BIFENDATE] |  | > 200000 nM | > 200000 nM | 
7 | COC(=O)c1cc(OC)c2c(c1-c1c(C(=O)OC3CCN(CC(=O)OCCCOc4no[n+]([O-])c4S(=O)(=O)c4ccccc4)CC3)cc(OC)c3c1OCO3)OCO2 | 0.7 | 590 nM | 800 nM | 
8 | COC(=O)c1cc(OC)c2c(c1-c1c(C(=O)OC3CCN(CC(=O)OCCCCOc4nonc4S(=O)(=O)c4ccccc4)CC3)cc(OC)c3c1OCO3)OCO2 | 1.1 | 73000 nM | 68000 nM | Drug metabolism [4]: Metabolite_Notdetected
9 | COC(=O)c1cc(OC)c2c(c1-c1c(C(=O)OC3CCN(CC(=O)OCCOc4no[n+]([O-])c4S(=O)(=O)c4ccccc4)CC3)cc(OC)c3c1OCO3)OCO2 | 1.3 | 650 nM | 510 nM | 
10 | COC(=O)c1cc(OC)c2c(c1-c1c(C(=O)OCCN3CCN(CC(=O)OCCCOc4no[n+]([O-])c4S(=O)(=O)c4ccccc4)CC3)cc(OC)c3c1OCO3)OCO2 | 1.2 | 930 nM | 750 nM | Drug metabolism [4]: Metabolite_Detected
11 | COC(=O)c1cc(OC)c2c(c1-c1c(C(=O)OCCN3CCN(CC(=O)NCCOc4no[n+]([O-])c4S(=O)(=O)c4ccccc4)CC3)cc(OC)c3c1OCO3)OCO2 | 5.5 | 3010 nM | 550 nM | 
12 | COC(=O)c1cc(OC)c2c(c1-c1c(C(=O)OCCN3CCN(CC(=O)OCCOc4no[n+]([O-])c4S(=O)(=O)c4ccccc4)CC3)cc(OC)c3c1OCO3)OCO2 | 3.5 | 2010 nM | 580 nM | 
13 | COc1cccc2c1C(=O)c1c(O)c3c(c(O)c1C2=O)C[C@@](O)(C(=O)CO)C[C@@H]3O[C@H]1C[C@H](N)[C@H](O)[C@H](C)O1.Cl [DOXORUBICIN HYDROCHLORIDE] | 41.5 | 24500 nM | 590 nM | MTD at 72 h [7]: 4 mg/kg; inhibition in vivo at 4 mg/kg (K562/A02 [8]): 18.6%; Activity (K562/A02 [9]): inactive; Activity (K562/A02 [10]): inactive
14 | COc1ccc(CCN(C)CCCC(C#N)(c2ccc(OC)c(OC)c2)C(C)C)cc1OC (stereo not drawn) |  |  |  | Activity (Homo sapiens [11]): 179000 RLU; inhibition (Homo sapiens [12]): Active; Activity (K562 [13]): inactive
15 | SODIUM ORTHOVANAD |  |  |  | Activity (Homo sapiens [11]): 242000 RLU
16 | COC(=O)c1cc(OC)c2c(c1-c1c(C(=O)OC3CCN(CC(=O)OC(C)CCOc4no[n+]([O-])c4S(=O)(=O)c4ccccc4)CC3)cc(OC)c3c1OCO3)OCO2 (stereo not drawn) | 1.9 | 760 nM | 390 nM | 
17 | COC(=O)c1cc(OC)c2c(c1-c1c(C(=O)O)cc(OC)c3c1OCO3)OCO2 | 0.9 | 125000 nM | 137000 nM | Drug metabolism [4]: Metabolite_Notdetected; Activity (K562/A02 [14]): inactive
18 | COC(=O)c1cc(OC)c2c(c1-c1c(C(=O)OC3CCN(CC(=O)OC(C)(C)CCOc4no[n+]([O-])c4S(=O)(=O)c4ccccc4)CC3)cc(OC)c3c1OCO3)OCO2 | 1.1 | 910 nM | 870 nM | 
19 | COC(=O)c1cc(OC)c2c(c1-c1c(C(=O)OC3CCN(CC(=O)NCCOc4no[n+]([O-])c4S(=O)(=O)c4ccccc4)CC3)cc(OC)c3c1OCO3)OCO2 | 2.5 | 3160 nM | 1280 nM | Drug metabolism [4]: Metabolite_Detected
20 | COC(=O)c1cc(OC)c2c(c1-c1c(C(=O)OCCN3CCN(CC(=O)OCCOCCOc4no[n+]([O-])c4S(=O)(=O)c4ccccc4)CC3)cc(OC)c3c1OCO3)OCO2 | 6.1 | 2300 nM | 380 nM | 
21 | COC(=O)c1cc(OC)c2c(c1-c1c(C(=O)OCCN3CCN(CC(=O)OCCCCOc4no[n+]([O-])c4S(=O)(=O)c4ccccc4)CC3)cc(OC)c3c1OCO3)OCO2 | 2.3 | 1570 nM | 690 nM | 
